Where two headings read alike, the source gives them in different places.
How the values were obtained:
NOD1∆CARD = biological target: T1, NOD1∆CARD (Homo sapiens, UniProt Q9Y239); test: MST with cell lysates expressing NOD1 mutants; type: binding; conditions: Fig EV5D
T1 sequence (Q9Y239 196-953 limits assumed): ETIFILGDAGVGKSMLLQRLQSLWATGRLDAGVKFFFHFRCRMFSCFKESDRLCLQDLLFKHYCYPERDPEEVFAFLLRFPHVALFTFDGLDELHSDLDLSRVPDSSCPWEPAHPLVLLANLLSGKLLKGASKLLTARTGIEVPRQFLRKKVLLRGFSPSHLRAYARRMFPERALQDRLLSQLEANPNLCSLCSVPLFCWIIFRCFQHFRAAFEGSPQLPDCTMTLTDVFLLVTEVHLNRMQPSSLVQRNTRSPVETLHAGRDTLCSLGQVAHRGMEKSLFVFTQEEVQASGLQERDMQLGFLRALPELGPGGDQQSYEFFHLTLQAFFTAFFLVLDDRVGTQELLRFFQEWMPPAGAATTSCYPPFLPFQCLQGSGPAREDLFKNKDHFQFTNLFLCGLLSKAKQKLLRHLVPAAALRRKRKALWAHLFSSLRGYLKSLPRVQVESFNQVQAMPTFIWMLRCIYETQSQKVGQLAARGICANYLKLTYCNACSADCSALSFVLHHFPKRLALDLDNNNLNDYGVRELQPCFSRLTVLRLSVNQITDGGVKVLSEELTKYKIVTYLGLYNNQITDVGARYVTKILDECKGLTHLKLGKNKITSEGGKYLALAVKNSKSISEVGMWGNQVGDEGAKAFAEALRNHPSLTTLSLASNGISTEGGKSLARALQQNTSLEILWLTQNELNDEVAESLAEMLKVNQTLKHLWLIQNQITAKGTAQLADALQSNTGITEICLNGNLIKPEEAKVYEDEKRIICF
Procedure: (§1) Binding of NOD1, NOD2, GFP, or NLRP3‐GFP to different ligands was measured by microscale thermophoresis (MST). 20 nM GFP or GFP‐tagged proteins in MST buffer (PBS pH 7.4, containing 0.5% NP‐40 and 10 mM DTT) was incubated with different concentrations of ligands. Immediately, samples were loaded into standard glass capillaries (NanoTemper) and thermophoresis analysis was performed on a NanoTemper Monolith NT.115 instrument (40% LED, 80% MST power) at 22°C. A laser on‐time of 30 s and a laser off‐time of 5 s were used. The experiment was performed in triplicates, and the MST curves were fitted using NT analysis software to obtain the K d values.

NOD1 = biological target: T2, NOD1 (Homo sapiens, UniProt Q9Y239); test: Microscale thermophoresis (MST) binding to purified NOD1-GFP
T2 sequence (Q9Y239 1-953): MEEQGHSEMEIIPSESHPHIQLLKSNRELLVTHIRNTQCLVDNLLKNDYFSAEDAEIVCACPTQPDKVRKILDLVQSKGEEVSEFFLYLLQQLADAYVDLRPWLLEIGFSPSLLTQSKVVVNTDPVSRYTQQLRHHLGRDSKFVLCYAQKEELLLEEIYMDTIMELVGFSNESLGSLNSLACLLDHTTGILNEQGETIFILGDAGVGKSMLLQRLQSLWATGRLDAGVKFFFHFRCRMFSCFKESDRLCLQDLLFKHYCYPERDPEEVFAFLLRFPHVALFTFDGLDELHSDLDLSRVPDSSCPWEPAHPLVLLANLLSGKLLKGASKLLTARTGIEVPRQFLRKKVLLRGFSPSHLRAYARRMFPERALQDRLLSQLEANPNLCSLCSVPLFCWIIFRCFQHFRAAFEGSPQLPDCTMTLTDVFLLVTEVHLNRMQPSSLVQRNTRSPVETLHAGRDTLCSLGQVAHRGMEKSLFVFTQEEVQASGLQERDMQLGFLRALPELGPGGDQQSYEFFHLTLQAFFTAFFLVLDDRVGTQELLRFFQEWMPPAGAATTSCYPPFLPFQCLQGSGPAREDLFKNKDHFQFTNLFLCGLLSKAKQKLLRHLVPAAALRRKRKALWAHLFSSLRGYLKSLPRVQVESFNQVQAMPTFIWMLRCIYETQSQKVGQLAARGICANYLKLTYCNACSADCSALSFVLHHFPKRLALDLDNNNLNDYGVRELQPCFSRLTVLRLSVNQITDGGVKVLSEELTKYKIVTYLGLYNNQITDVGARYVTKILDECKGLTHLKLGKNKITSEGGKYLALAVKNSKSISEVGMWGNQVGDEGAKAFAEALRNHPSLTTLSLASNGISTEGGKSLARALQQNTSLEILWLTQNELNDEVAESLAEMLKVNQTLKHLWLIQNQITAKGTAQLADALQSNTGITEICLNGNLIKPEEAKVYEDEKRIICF
Procedure: The lysates were incubated with 2 ml GFP‐Trap agarose at 4°C for 4 h. The agarose was collected with Poly‐Prep columns by gravity flow. […] To remove heat shock proteins, columns were further washed with 50 ml wash buffer III (50 mM Tris–HCl, pH 7.5, 150 mM NaCl, 5 mM MgCl2+, 1 mM ATP). To elute the proteins, the agarose was mixed with 2 ml elution buffer (100 mM Glycine, pH 2.5) for 1 min and the eluted proteins were immediately neutralized with 0.2 ml of 1 M Tris, pH 10.5.

[1] = test system: HeLa inducible NOD1 or NOD2 cells; test: ELISA of IL6/IL8 in supernatants of HeLa inducible NOD1 or NOD2 cells; type: cell-based, human
Procedure: To differentiate THP‐1 into macrophage‐like cells, THP‐1 cells were stimulated with 50 ng/ml phorbol 12‐myristate 13‐acetate (Sigma‐Aldrich, P8139) for 24 h and then incubated with fresh medium for another 48 h. […] To induce NOD1 or NOD2 expression, HeLa NOD1 or NOD2 cells were treated with 0.5 µg/ml or 0.25 µg/ml doxycycline for at least 16 h, respectively. All cells have been checked for mycoplasma contamination regularly. Bone marrow‐derived macrophages (BMDMs) were obtained from tibial and femural bones and generated with DMEM containing 20% L929 cell supernatant, 10% FBS, 5% heat‐inactivated horse serum, 1 mM sodium pyruvate, and 2 mM L‐glutamine. For BMDM stimulation experiments, BMDMs were treated with IFN‐γ (20 ng/ml) overnight before stimulation.

NOD1∆LRR = biological target: T3, NOD1∆LRR (Homo sapiens, UniProt Q9Y239); test: MST with cell lysates expressing NOD1 mutants; type: binding; conditions: Fig EV5D
T3 sequence (Q9Y239 1-531 limits assumed): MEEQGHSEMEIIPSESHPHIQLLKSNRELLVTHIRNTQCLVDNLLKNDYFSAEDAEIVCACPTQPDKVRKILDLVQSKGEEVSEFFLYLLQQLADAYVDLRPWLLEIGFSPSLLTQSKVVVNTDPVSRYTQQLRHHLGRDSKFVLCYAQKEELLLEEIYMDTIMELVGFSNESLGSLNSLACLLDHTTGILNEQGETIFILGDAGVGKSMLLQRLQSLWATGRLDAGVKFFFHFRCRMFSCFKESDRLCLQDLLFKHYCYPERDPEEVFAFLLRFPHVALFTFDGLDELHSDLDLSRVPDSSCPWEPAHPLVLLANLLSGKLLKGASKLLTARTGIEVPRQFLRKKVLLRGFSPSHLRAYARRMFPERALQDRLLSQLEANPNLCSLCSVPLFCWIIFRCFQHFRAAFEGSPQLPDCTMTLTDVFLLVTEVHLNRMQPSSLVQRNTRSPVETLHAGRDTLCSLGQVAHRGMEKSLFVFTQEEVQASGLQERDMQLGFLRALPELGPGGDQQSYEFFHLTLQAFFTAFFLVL
Procedure: as §1

Interaction with NOD1∆CARD by MST (NOD1∆CARD): still interacted
Kd (NOD1; Fig 6D, one representative experiment, read-out: Kd (NOD1/ligand)): 2090 ± 770 nM
Kd (NOD1; Fig EV5B, purified NOD1, read-out: Kd (NOD1/ligand)): 2290 ± 1970 nM
Kd (NOD1; Kd value of S1P interacting with NOD1, as stated in text): ~2000 nM
Kd (NOD1; Kd(NOD1: S1P), Fig 7C, S1P alone): 1740 ± 430 nM
Kd (NOD1; Kd(NOD1 WT: S1P), Fig 7E): 2200 ± 510 nM
Interaction with NOD1∆LRR by MST (NOD1∆LRR): still interacted
Structure (SMILES): CCCCCCCCCCCCC/C=C/[C@@H](O)[C@@H](N)COP(=O)(O)O [S1P, sphingosine‐1‐phosphate]
IL6 production compared to iE-DAP or MDP at the same concentration ([1]; 0.5, 5 or 20 µM with digitonin (5 µg/ml), Fig EV4E,F): higher IL6 production
IL6 production on co-stimulation vs single stimulation ([1]; S1P (2 µM) with iE-DAP or MDP (3, 20, 50 µM), digitonin, 20 h): significantly higher IL6 production
IL6 or IL8 production ([1]; cytosolic delivery with digitonin (5 µg/ml), 20 h): induced abundant IL6 or IL8 production
IL6 or IL8 production ([1]; extracellular stimulation (absence of digitonin), S1P 10 µM): did not induce marked IL6 or IL8 production
